Here are results for 3 molecules from ChEMBL document CHEMBL6078613, “Cathepsin B: The dawn of tumor therapy” (Eur J Med Chem, 2024).

The target in assay [1] is T1, Cathepsin B (Homo sapiens, UniProt P07858). Kind of assay: Inhibition of Cathepsin B (unknown origin) at 10 uM relative to control.
In assay [2] the target is T1, Cathepsin B. Kind of assay: Inhibition of Cathepsin B (unknown origin).
Assay [3] in a line: Inhibition of Cathepsin B-like cysteine protease (unknown origin). Also noted: species or system Homo sapiens.

Where a SMILES comes first, the peptide text is derived from it. The star is where a group is joined. Cbz = O=C(OCc1ccccc1)*; CH2F = FC*

The term inhibition denotes the drop in the measured response relative to a control, in per cent. Low readings indicate a response near the control, high ones a response far below the control. In the case of `CCOC(=O)[C@H]1O[C@@H]1C(=O)N[C@@H](CC(C)C)C(=O)NCCC(C)C`, the inhibition at Cathepsin B [1] was 91%.

As usually defined, the IC50 is the concentration at which inhibition is half-maximal. Low readings indicate greater potency, high ones weaker potency. `COC(=O)CC[C@H](NC(=O)[C@H](Cc1c[nH]c2ccccc12)NC(=O)OCc1ccccc1)C(=O)N[C@@H](Cc1cnc[nH]1)C(=O)N[C@@H](CC(=O)OC)C(=O)CF` (Cbz-WE(OMe)HD(OMe)-CH2F) returned an IC50 at Cathepsin B [2] of 6 µM.

As to `CC(C)C[C@H](NC(=O)[C@H]1O[C@@H]1C(=O)O)C(=O)NCCCCN=C(N)N` [E-64], the IC50 in assay [3] amounted to 0.009 µM.
